Measured values taken from ChEMBL document CHEMBL1155064, “Discovery of aminoquinolines as a new class of potent inhibitors of heat shock protein 90 (Hsp90): Synthesis, biology, and molecular modeling” (Bioorg Med Chem, 2008).
Calls of active or inactive are those of the source. No cut-off for these calls is given here.

Assays:
[1] = target: T1, Heat shock protein HSP90 (Homo sapiens, UniProt P07900+P08238); assay: Inhibition of Hsp90 in human MCF7 cell lysates assessed as interaction with Cy3b-conjugated geldanamycin by FP assay; format: cell-free
[2] = target: T1, Heat shock protein HSP90; assay: Inhibition of Hsp90 in human MCF7 cells assessed as Her2 level after 24 hrs by Western blot; format: cell-based
[3] = tested on: MCF7; assay: Induction of Her2 degradation in human MCF7 cells after 24 hrs by Western blot analysis; format: functional, cell-based; conditions: MCF7, 24 h

IC50 [1] [µM]	IC50 [2] [µM]	Activity [2]	IC50 [3] [µM]	IC50 ([1]; read-out: IC50) [µM]	Structure (SMILES)
4.9	1.6				COc1cc(NCCN(CC(C)C)CC(C)C)c2ncccc2c1
< 1.6		inactive			CCC(N)CCNc1cc(O)cc2cccnc12 (stereo unspecified)
> 50		inactive			CCC(C)(C)NCCCCCNc1cc(OC)cc2cccnc12
> 50	25				COc1cc(NCCCCN)c2ncccc2c1
< 1.6		inactive			CC(N)CCCNc1cc(O)cc2cccnc12 (stereo unspecified)
40		inactive			COc1cc(NCCN(C(C)C)C(C)C)c2ncccc2c1
14.4		inactive			COc1cc(NC(C)CCCNC(C)C)c2ncccc2c1 (stereo unspecified)
40		inactive			CCCCN(CCCC)CCNc1cc(OC)cc2cccnc12
5.8	5				COc1cc(NCCCC(C)N)c2ncccc2c1.Cl.Cl (stereo unspecified)
2.4	6				CC(C)NCCCCCNc1cc(O)cc2cccnc12
40	13				CCC(CC)NCCCNc1cc(OC)cc2cccnc12
8		inactive			CCCC(C)N(CC)CCNc1cc(OC)cc2cccnc12 (stereo unspecified)
		inactive		3.1	CCC(C)NCCNc1cc(OC)cc2cccnc12 (stereo unspecified)

Second part, the compound before the results:

Structure (SMILES)	IC50 [1] [µM]	IC50 [2] [µM]	Activity [2]	IC50 [3] [µM]	IC50 ([1]; read-out: IC50) [µM]
COc1cc(NC(C)CCCNC(C)C)c2ncccc2c1OC (stereo unspecified)	44	25			
CC(CCCN)Nc1cc(O)cc2cccnc12 (stereo unspecified)	1.8		inactive		
NCCCCNc1cc(O)cc2cccnc12	< 1.6		inactive		
CCCNCCCC(C)Nc1cc(OC)cc2c(C)ccnc12 (stereo unspecified)	> 50		inactive		
COc1cc(NC(C)CCCN)c2ncccc2c1Oc1ccc(Cl)cc1 (stereo unspecified)	> 50		inactive		
Br.CCN(CC)CCCCCNc1cc(O)cc2cccnc12	0.73	1		1	
COc1cc(NCCCN(C(C)C)C(C)C)c2nc(OC)cc(Cl)c2c1	> 50		inactive		
COc1ccc(Oc2c(OC)cc(NCCCCCNC(C)C)c3ncccc23)cc1	> 50		inactive		
CC(CCN(C)C)Nc1cc(O)cc2cccnc12 (stereo unspecified)	0.8	30			
CC(N)CCCCNc1cc(O)cc2cccnc12 (stereo unspecified)	< 1.6	20			
CC(C)NCCCC(C)Nc1cc(O)cc2cccnc12 (stereo unspecified)	< 1.6		inactive		
CCN(CC)CCCNc1cc(OC)c(Nc2ccccc2)c2cccnc12	2.1	25			
CCN(CC)CCCC(C)Nc1cc(O)cc2cccnc12 (stereo unspecified)	1.1		inactive		
NCCCNc1cc(O)cc2cccnc12	7.6		inactive		
CCN(CC)CCCNc1cc(OC)cc2ccc(OC)nc12	14		inactive		
CCN(CC)CCCCNc1cc(O)cc2cccnc12	> 50		inactive		
NCCCCCNc1cc(O)cc2cccnc12	< 1	20			
